pIC50, pKd: −log10 of the molar value. Residues, ends and D or L forms follow the SMILES beside them. No end group written: not given here.
Legend:
[1] = biological target: T1, properdin binding to C3bBb (Homo sapiens, UniProt P01024+P27918); experiment: C3b(Bb)-properdin binding inhibition in human serum (ELISA); conditions: peptides; tested as described in Example 2; read-out: IC50, blocking of C3bBb binding
T1 construct: The resulting convertase proteolytically modifies C3, producing the C3b fragment; tissue Sigma Chemical Company (serum)
Experimental: This assay was carried out as described in Example 1 above with some changes. Briefly, microtiter wells were coated with C3b, washed, blocked and incubated with various concentrations of normal human serum (NHS) (Sigma Chemical Company, Cat. No. S1764) diluted in blocking solution for 2 hours at room temperature. Under the conditions of this binding assay, factor B in serum will bind solid phase-bound C3b and, after cleavage by factor D in serum, generates C3bBb. Properdin is known to bind C3bBb with high affinity (Farries, T. C., P. J. Lachmann, and R. A. Harrison, 1988, Biochem. 252:47-54). Uncoated wells served as background controls. After washing, bound-properdin was detected with the anti-properdin antibody as described in Example 1 above.
To evaluate the effect of the blocking antibody to inhibit properdin binding to C3b(Bb), various concentrations of the blocking antibody described in Example 1 above were added to a fixed concentrations of serum (4% in blocking solution). The amount of properdin bound to C3b(Bb) was detected using the detection system described in Example 1 above.

[2] = system: C5b-9 membrane-attack complex (MAC) formation via the alternative pathway; experiment: Alternative pathway-dependent MAC assay on LPS-coated wells (ELISA); type: biochemical, human; conditions: peptides; ELISA as described in Example 3; read-out: IC50, inhibition of MAC formation
Text: The binding data of Examples 1 and 2 above reveal that the properdin monoclonal antibody prevents the binding of properdin to C3b and the functional C3 convertase (C3bBb). […] The final end product of this pathway is the C5b-9 membrane-attack complex (MAC). To analyze the effects of the properdin antibody on MAC formation via the alternative pathways, an assay was utilized in which bacterial LPS was used as a substrate to initiate the alternative complement pathway cascade.
Microtiter wells were coated with LPS (2 μg/50 μl per well) in VBS overnight at 4° C. Uncoated wells served as background controls. After aspirating the LPS solution, wells were treated with blocking solution and incubated with various concentrations of normal human serum. Following a 3 hour incubation at 37° C., deposited MAC was detected with mouse anti-human soluble C5b-9 monoclonal antibody (Quidel, Cat. No. A239) using standard ELISA methodologies essentially as described in the Examples above. The effect of the blocking antibody on the MAC formation was evaluated by adding various concentrations of blocking antibody to a fixed concentration of serum (4% in blocking solution). The amount of inhibition of soluble C5b-9 formation was determined using the antibody detection system described in the Examples above.

[3] = biological target: T2, binding of properdin to C3b coated plates (Homo sapiens, UniProt P01024); conditions: peptides at 0-200 μg/ml; cited from earlier work
T2 construct: The resulting convertase proteolytically modifies C3, producing the C3b fragment

human C3b = biological target: T3, human C3b (Homo sapiens, UniProt P01024); experiment: C3b-properdin binding ELISA (properdin titration on immobilized C3b); conditions: FIG. 1, read-out: apparent binding constant (concentration of properdin needed to reach half-maximal binding to C3b)
T3 construct: The resulting convertase proteolytically modifies C3, producing the C3b fragment; purchased Calbiochem, San Diego, Calif; 204860
Experimental: Polystyrene microtiter plates were coated with human C3b (0.5 μg/50 μl per well) (Calbiochem, San Diego, Calif., Cat. No. 204860) in Veronal buffered saline (VBS): (5 mM diethyl barbiturate, 120 mM NaCl, 5 mM MgCl2, 5 mM EGTA) overnight at 4° C. After aspirating the C3b solution, wells were blocked with VBS containing 0.5% human serum albumin (HSA) (Sigma Chemical Company, St. Louis, Mo., Cat. No. A9511) for 2 hours at room temperature. Wells without C3b coating served as background controls. Aliquots of human properdin (or factor P) (Advanced Research Technology, San Diego, Calif., Cat. No. A139) at varying concentrations in blocking solution were added to the wells. Following a 2 hour incubation at room temperature, the wells were extensively rinsed with VBS.
C3b-bound properdin was detected by the addition of mouse monoclonal anti-human properdin antibody (detection antibody) (Quidel, San Diego, Calif., anti-human properdin monoclonal antibody P#2, Cat. No. A235) at 1:1000 dilution in blocking solution, which was allowed to incubate for 1 hour at room temperature. […] After incubation for 10 minutes at 25° C., the reaction of TMB was quenched by the addition of 100 μl of phosphoric acid, and the plate was read at 450 nm in a microplate reader (e.g., SPECTRA MAX 250, Molecular Devices, Sunnyvale, Calif.). […]

[4] = system: Fcγ receptors on neutrophils; experiment: Chemiluminescence assay for superoxide production in diluted whole blood; type: cell-based; conditions: 5 μg/ml properdin alone
Text: Such agents may be screened for their ability to activate Fcγ receptors by a variety of assays known in the art. Since superoxide generation is one of the classic responses of neutrophils and other phagocytes to activation via Fcγ receptors (RII), a specific assay for superoxide release from cells in diluted whole blood was utilized to screen and evaluate agents and the possible role of Fcγ receptors in neutrophil activation by such an agent. Monoclonal antibody agents are generally ineffective aggregating agents upon binding to their antigen and thus ineffective to activate Fcγ receptors via immune complex formation. However, Fcγ activation was detected for a blocking anti-properdin monoclonal antibody as follows.
A chemiluminescence assay for superoxide production in diluted whole blood was performed (Tose, M. F. and A. Itamedani, 1992, Am. J. Clin. Pathol. 97:566-573). Fresh blood was collected by a finger prick and rapidly diluted 350-fold into phenol red-free RPMI-1640 media containing Pen-Strep which was buffered with 10 mM HEPES (pH 7.4) at 37° C. The media also contains 10 μM lucigenin (Sigma Chemical Co.), a compound which becomes chemiluminescent when reduced by superoxide. […] At regular intervals, chemiluminescence was monitored by transferring each sample into a liquid scintillation counter (Packard Model 1900 TR) operated in a single photon mode to determine the “cpm”.

| pIC50 [1] | pIC50 [2] | pKd (human C3b) | Molecule | compete with properdin for C3 binding [3] | superoxide levels over control levels [4] |
| --- | --- | --- | --- | --- | --- |
| 3.22 to 3.40 | 3.57 |  | CC(=O)NCC(=O)N[C@@H](CC(C)C)C(=O)N[C@@H](CS)C(=O)N[C@@H](CCC(N)=O)C(=O)N1CCC[C@H]1C(=O)N[C@@H](CS)C(=O)N[C@@H](CCCNC(=N)N)C(=O)N[C@@H](CO)C(=O)N1CCC[C@H]1C(=O)N[C@@H](CCCNC(=N)N)C(=O)O [Peptide 1] (Ac-GLCQPCRSPR-OH; N-terminus and C-terminus assumed) | compete |  |
| 3.22 to 3.40 | 3.47 |  | Ac-CRSPRWSLWS (N-terminus assumed) [peptide 2] | compete |  |
| 3.22 to 3.40 | 3.62 |  | Ac-RYRRCVGWNG (N-terminus assumed) [peptide 3] | compete |  |
|  |  | ~9.00 | human properdin: human properdin (or factor P), Advanced Research Technology Cat. No. A139 |  | not significantly elevated |

Source: US20030198636A1, “Process for inhibiting complement activation via the alternative pathway” (priority 1997, published 2003)
